Laboratory results as given in patent US5560924A, “Medicament containing a 2-arylpropionic acid derivative in nanosol form and its preparation” (priority 1994, dated 1996).

Key:
[1] = cited from earlier work
[2] = rapid test for determination of the particle surface charge with standard gelatins; type: physicochemical; conditions: rapid test at pH 4.5, standard type A (IEP 9.5) and type B (IEP 3.5) gelatins, 200 bloom
Method: In a first rapid test it is determined what charge the precipitated particles have. […] If the particles are, for example, negatively charged, a gelatin is picked which is positively charged under the given pH conditions. This rapid test for the determination of the particle charge has the advantages that it can be carried out without a great outlay in terms of apparatus and time. A time-consuming and inaccurate zeta potential measurement can thus be dispensed with entirely.
At the same dose of the pharmaceutical substance, in the case of the gelatin which is unsuitable in its state of charge a colloidal system will either not form or immediately become unstable or the pharmaceutical substance will flocculate. If the resulting particles are negatively charged, they are stabilized rather by the gelatin solution of Type A, which is positively charged at a pH of 6, than by the solution containing Type B gelatin; in contrast, in this case Type B either will form no colloidal system or the system will immediately destabilize. The flocculation of the particles can be monitored e.g. via a simple turbidity measurement.
Under identical test conditions, the standard type A gelatin (IEP 9.5/200 bloom) yields a briefly stable nanosol.

[3] = cited from earlier work; remark: listed apart in the source

For `CC(C)Cc1ccc(C(C)C(=O)O)cc1` (racemic) [ibuprofen, 2-(4-isobutylphenyl)propionic acid], the “tmax (time to blood level maximum)” value ([1]; conventional ibuprofen) is listed as 1 to 2 h and the “time until therapeutic concentrations are achieved” value ([1]; in 2 of 8 subjects investigated) is listed as “more than 4 hours”.

For `CC(C(=O)O)c1cccc(C(=O)c2ccccc2)c1` (racemic) [ketoprofen, 2-(3-benzoylphenyl)propionic acid], the “surface charge of the particles” value [2] is given as “negative surface charge” and the pKa [3] is given as 5.3.
